Reference: PubChem BioAssay (NCI)
Several values for one entry are separate records, joined by “and”; a condition that tells them apart may be missing. Equal entries are not always repeated.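 In this assay, cells in 96-well plates receive the compound at five concentrations for 48 hours. Endpoints are linearly interpolated between the surrounding concentrations. Here, GI50 denotes the concentration required for 50% inhibition of growth. Definition used: TGI = concentration required for complete inhibition of growth.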

Columns and labels:
Assay in all cases: NCI tumour cell line growth inhibition, 48 h
[1] = test system: 786-0 renal
[2] = test system: A498 renal
[3] = test system: A549 NSCLC
[4] = test system: ACHN renal
[5] = test system: BT-549 breast
[6] = test system: CAKI-1 renal
[7] = test system: CCRF-CEM leukemia
[8] = test system: COLO 205 colon
[9] = test system: DU-145 prostate
[10] = test system: EKVX NSCLC
[11] = test system: HCC-2998 colon
[12] = test system: HCT-116 colon
[13] = test system: HCT-15 colon
[14] = test system: HL-60(TB) leukemia
[15] = test system: HOP-62 NSCLC
[16] = test system: HOP-92 NSCLC
[17] = test system: HS 578T breast
[18] = test system: HT29 colon
[19] = test system: IGROV1 ovarian
[20] = test system: K-562 leukemia
[21] = test system: KM12 colon
[22] = test system: LOX IMVI melanoma
[23] = test system: M14 melanoma
[24] = test system: MALME-3M melanoma
[25] = test system: MCF7 breast
[26] = test system: MDA-MB-231 breast
[27] = test system: MDA-MB-435
[28] = test system: MDA-N
[29] = test system: MOLT-4 leukemia
[30] = test system: NCI-H226 lung
[31] = test system: NCI-H23 lung
[32] = test system: NCI-H460 lung
[33] = test system: NCI-H522 lung
[34] = test system: NCI/ADR-RES ovarian
[35] = test system: OVCAR-3 ovarian
[36] = test system: OVCAR-4 ovarian
[37] = test system: OVCAR-5 ovarian
[38] = test system: OVCAR-8 ovarian
[39] = test system: PC-3 prostate
[40] = test system: RPMI-8226 leukemia
[41] = test system: RXF 393 renal
[42] = test system: SF-268 CNS
[43] = test system: SF-295 CNS
[44] = test system: SF-539 CNS
[45] = test system: SK-MEL-2 melanoma
[46] = test system: SK-MEL-28 melanoma
[47] = test system: SK-MEL-5 melanoma
[48] = test system: SK-OV-3 ovarian
[49] = test system: SN12C renal
[50] = test system: SNB-19 CNS
[51] = test system: SNB-75 CNS
[52] = test system: SR leukemia
[53] = test system: SW-620 colon
[54] = test system: T-47D breast
[55] = test system: TK-10 renal
[56] = test system: U251 CNS
[57] = test system: UACC-257 melanoma
[58] = test system: UACC-62 melanoma
[59] = test system: UO-31 renal

Compound: CCCC(=O)Nc1cn(COC)c(C(=O)N2C[C@@H]3C[C@]34C2=CC(=O)c2[nH]cc(C)c24)n1
- GI50 [1]: 3.14 µM
- TGI [1]: 14.8 µM and 10.1 µM
- TGI [2]: 18.2 µM
- TGI [3]: 50 µM and 30 µM
- GI50 [4]: 2.16 µM
- TGI [4]: 50 µM and 6.82 µM
- TGI [5]: 24.7 µM and 21.7 µM
- GI50 [6]: 4.65 µM
- TGI [6]: 12.1 µM and 16.2 µM
- GI50 [7]: 1.96 µM
- GI50 [8]: 6.31 µM
- TGI [8]: 16.6 µM and 23.7 µM
- GI50 [9]: 3.99 µM
- TGI [9]: 12.7 µM and > 100 µM
- GI50 [10]: 14.8 µM
- TGI [10]: > 5 µM and 38.2 µM
- GI50 [11]: 6.23 µM
- TGI [11]: 13.1 µM and 19.1 µM
- TGI [12]: 50 µM and 82.4 µM
- TGI [13]: 50 µM and 38.9 µM
- TGI [14]: 4.9 µM
- GI50 [15]: 3.91 µM
- TGI [15]: 50 µM and 15.2 µM
- GI50 [16]: 5.51 µM
- TGI [16]: 20.6 µM and 18.2 µM
- GI50 [17]: 12.2 µM
- TGI [17]: 44.6 µM and 41.2 µM
- GI50 [18]: 11.2 µM
- TGI [18]: 21.1 µM and 37.7 µM
- GI50 [19]: 1.27 µM
- TGI [19]: 29.5 µM and 10.8 µM
- GI50 [20]: 3.02 µM
- TGI [20]: 50 µM and > 100 µM
- GI50 [21]: 10.5 µM
- TGI [21]: > 5 µM and 24.5 µM
- TGI [22]: 21.9 µM and 53.8 µM
- GI50 [23]: 4.12 µM
- TGI [23]: 50 µM and 16.2 µM
- TGI [24]: 6.66 µM
- TGI [25]: 50 µM and 11.6 µM
- GI50 [26]: 19.9 µM
- TGI [26]: 27 µM and 51.1 µM
- GI50 [27]: 11.1 µM
- TGI [27]: 27.4 µM and 27.1 µM
- GI50 [28]: 12.7 µM
- TGI [28]: 19.3 µM and 31.3 µM
- GI50 [29]: 1.19 µM
- TGI [29]: 3.8 µM and 21.2 µM
- TGI [30]: 34.1 µM
- TGI [31]: 14.7 µM and 6.4 µM
- GI50 [32]: 2.44 µM
- TGI [32]: 13.9 µM and 5.08 µM
- TGI [33]: 13.5 µM and 4 µM
- GI50 [34]: 14.9 µM
- TGI [34]: 20.7 µM and 28.9 µM
- GI50 [35]: 2.98 µM
- TGI [35]: 27.2 µM and 7.03 µM
- GI50 [36]: 4.66 µM
- TGI [36]: 18.2 µM and 14.3 µM
- GI50 [37]: 3.3 µM
- TGI [37]: 50 µM and 9.52 µM
- TGI [38]: 12.8 µM and 14 µM
- GI50 [39]: 5.65 µM
- TGI [39]: 24.1 µM and 19 µM
- GI50 [40]: 1.87 µM
- TGI [40]: 41.5 µM and 6.75 µM
- GI50 [41]: 2.21 µM
- TGI [41]: 16.5 µM and 4.67 µM
- GI50 [42]: 2.65 µM
- TGI [42]: 30.5 µM and 8.66 µM
- GI50 [43]: 3.68 µM
- TGI [43]: 50 µM and 15.8 µM
- GI50 [44]: 4.27 µM
- TGI [44]: 50 µM and 15.8 µM
- GI50 [45]: 2.98 µM
- TGI [45]: 27.3 µM and 9.29 µM
- TGI [46]: 50 µM and 32.2 µM
- GI50 [47]: 3.28 µM
- TGI [47]: 12.8 µM and 11.8 µM
- GI50 [48]: 13.7 µM
- TGI [48]: 28.2 µM and 29.4 µM
- TGI [49]: 30.9 µM and 22.9 µM
- GI50 [50]: 10.7 µM
- TGI [50]: 50 µM and 30.9 µM
- GI50 [51]: 14.3 µM
- TGI [51]: 23.1 µM and 28.6 µM
- TGI [52]: 0.488 µM
- TGI [53]: 50 µM and 47.7 µM
- GI50 [54]: 7.01 µM
- TGI [54]: 38.4 µM and 21.1 µM
- GI50 [55]: 3 µM
- TGI [55]: 19.1 µM and 6.18 µM
- GI50 [56]: 4.93 µM
- TGI [56]: 50 µM and 21.1 µM
- GI50 [57]: 13.3 µM
- TGI [57]: 23.5 µM and 27.7 µM
- GI50 [58]: 12.4 µM
- TGI [58]: 16.8 µM and 24.9 µM
- GI50 [59]: 16.9 µM
- TGI [59]: 30.3 µM and 57.3 µM

Compound: CCOC(=O)c1cccc(N=Nc2nc[nH]c2/C=C/C(=O)OC)c1
- TGI [1]: > 100 µM
- TGI [2]: 66.8 µM
- TGI [3]: > 100 µM
- TGI [4]: > 100 µM
- TGI [5]: > 100 µM
- TGI [6]: > 100 µM
- TGI [7]: > 100 µM
- TGI [8]: > 100 µM
- TGI [9]: > 100 µM
- TGI [10]: > 100 µM
- TGI [11]: 28.2 µM
- TGI [12]: > 100 µM
- TGI [13]: > 100 µM
- TGI [14]: 53.4 µM
- TGI [15]: > 100 µM
- TGI [16]: > 100 µM
- TGI [17]: > 100 µM
- TGI [18]: > 100 µM
- TGI [19]: > 100 µM
- TGI [20]: > 100 µM
- TGI [21]: > 100 µM
- TGI [22]: > 100 µM
- TGI [23]: 49.6 µM
- TGI [24]: 71.8 µM
- TGI [25]: > 100 µM
- TGI [26]: > 100 µM
- TGI [27]: > 100 µM
- TGI [28]: > 100 µM
- TGI [29]: 40.2 µM
- TGI [30]: > 100 µM
- TGI [31]: > 100 µM
- TGI [32]: 53 µM
- TGI [33]: > 100 µM
- TGI [34]: > 100 µM
- TGI [35]: > 100 µM
- TGI [36]: > 100 µM
- TGI [37]: > 100 µM
- TGI [38]: > 100 µM
- TGI [39]: > 100 µM
- TGI [40]: > 100 µM
- TGI [41]: > 100 µM
- TGI [42]: > 100 µM
- TGI [43]: > 100 µM
- TGI [44]: > 100 µM
- TGI [45]: 63.5 µM
- TGI [46]: > 100 µM
- TGI [47]: 36.9 µM
- TGI [48]: > 100 µM
- TGI [49]: 68.1 µM
- TGI [50]: > 100 µM
- TGI [51]: 58.7 µM
- TGI [52]: 12 µM
- TGI [53]: > 100 µM
- TGI [54]: > 100 µM
- TGI [55]: > 100 µM
- TGI [56]: > 100 µM
- TGI [57]: 60.4 µM
- TGI [58]: > 100 µM
- TGI [59]: > 100 µM

Compound: CC1CC2CCCC(O)=C2C(=O)O1 (stereo not drawn)
- TGI [1]: > 100 µM
- TGI [2]: > 100 µM
- TGI [3]: > 100 µM
- TGI [4]: > 100 µM
- TGI [5]: > 100 µM
- TGI [6]: > 100 µM
- TGI [7]: > 100 µM
- TGI [8]: > 100 µM
- TGI [9]: > 100 µM
- TGI [10]: > 100 µM
- TGI [11]: > 100 µM
- TGI [12]: > 100 µM
- TGI [13]: > 100 µM
- TGI [14]: > 100 µM
- TGI [15]: > 100 µM
- TGI [16]: > 100 µM
- TGI [17]: > 100 µM
- TGI [18]: > 100 µM
- TGI [19]: > 100 µM
- TGI [20]: > 100 µM
- TGI [21]: > 100 µM
- TGI [22]: > 100 µM
- TGI [23]: > 100 µM
- TGI [24]: > 100 µM
- TGI [25]: > 100 µM
- TGI [26]: > 100 µM
- TGI [27]: > 100 µM
- TGI [28]: > 100 µM
- TGI [29]: > 100 µM
- TGI [30]: > 100 µM
- TGI [31]: > 100 µM
- TGI [32]: > 100 µM
- TGI [33]: > 100 µM
- TGI [34]: > 100 µM
- TGI [35]: > 100 µM
- TGI [36]: > 100 µM
- TGI [37]: > 100 µM
- TGI [38]: > 100 µM
- TGI [39]: > 100 µM
- TGI [40]: > 100 µM
- TGI [41]: > 100 µM
- TGI [42]: > 100 µM
- TGI [43]: > 100 µM
- TGI [44]: > 100 µM
- TGI [45]: > 100 µM
- TGI [46]: > 100 µM
- TGI [47]: > 100 µM
- TGI [48]: > 100 µM
- TGI [49]: > 100 µM
- TGI [50]: > 64.8 µM
- TGI [51]: > 100 µM
- TGI [52]: > 100 µM
- TGI [53]: > 100 µM
- TGI [54]: > 100 µM
- TGI [55]: > 100 µM
- TGI [56]: > 100 µM
- TGI [57]: > 100 µM
- TGI [58]: > 100 µM
- TGI [59]: > 100 µM
